{"source": "patent US20220041691A1", "about": "“METHODS FOR DIAGNOSING OR TREATING POST-TRAUMATIC STRESS DISORDER, AND COMPOSITIONS THEREFOR” (Centre for Addiction and Mental Health, priority 2018, published 2022)", "molecules": {"B1": {"name": "GST-FKBP51_TPR (GST fusion of the tetratricopeptide repeat domain of FKBP51) (other)", "chain": "EMDTKEKLEQAAIVKEKGTVYFKGGKYMQAVIQYGKIVSWLEMEYGLSEKESKASESFLLAAFLNLAMCYLKLREYTKAVECCDKALGLDSANEKGLYRRGEAQLLMNEFESAKGDFEKVLEVNPQNKAARLQISMCQKKAKEHNERDRRIYANMFKKFAEQDAKEEANKAMGKKTSEGVTNEKGTDSQAMEEEKPEGHV", "notes": "also called GST-TPR; FKBP51 TPR domain; not shown: glutathione S-transferase (GST) tag; vector stated only for the GR fragments (pGEX-4T3)"}}, "key": {"fear-conditioned mice": {"tested_on": "fear-conditioned mice", "assay": "Cued fear conditioning, systemic (i.p.) peptide delivery", "assay_type": "in vivo, mouse", "conditions": "p<0.05", "description": "Next, testing was performed to determine whether TAT-GRpep can block the emergence of PTSD-like fear-related behaviours when administrated systemically. Animals underwent five rounds of CS-US pairings followed by 5 days of extinction training before the expression of fear in response to the learned cue was assessed (FIG. 4A). Mice were injected with either TAT-GRpep or TAT intraperitoneally (3 nmol/g, i.p.) one hour before the test.\nFurthermore, testing was performed to determine whether disrupting the GR-FKBP51 complex reduced consolidation of cued fear memory. Thus, TAT or TAT-GRpep was administered two hours after the end of fear conditioning training (FIG. 4C), before five consecutive daily extinction sessions of cue exposure without shock. […] This may therefore indicate a potential approach to both preventing and treating PTSD-like behaviour in the aftermath of trauma, for example.\nAnimals were first given a five-minute habituation to the apparatus (Habitest, Colbourne Instruments). Then, animals were exposed to 30 seconds of cue exposure (an in-house white light), which co-terminated with one second of foot-shock (0.5 mA). The cue exposure and foot-shock were repeated five times, intermitted by 5-minute inter-trial intervals. Following the conditioning, animals were subjected to 2-5 days of extinction before the assessment of their cued fear memory, which consisted of 15 rounds of 30-second cue exposure, with 30-second inter-trial intervals (adapted from Andero et al.).^48\nThe expression of fear (in a different context from training) was assessed 24 hours after the last extinction training. The assessment consisted of a three-minute period of habituation (absence of CS) and a sequent three-minute trial of conditioned cues. The duration of freezing behaviors was recorded by a blinded experimenter. Peptide treatment was either administered 2 hours after the conditioning or 30 minutes before the behavioral assessment."}, "[1]": {"tested_on": "GR and FKBP52 colocalization in primary neurons", "assay": "Immunocytochemistry of GR and FKBP52 in primary mouse neurons", "assay_type": "cell-based", "conditions": "primary neurons 8 DIV, 10 μM, 45 min", "description": "Cortical tissues from embryonic day (E14) mouse brains were dissected out, incubated with 0.25% trypsin for 15 min at 37° C., and dissociated by mechanical trituration. Neurons were then plated at a desired density onto glass coverslips previously coated with 0.1 mg/ml poly-d-lysine, and grown in Neurobasal medium with 1× Glutamax, 1×B27, 100 U/ml penicillin and 100 μg/ml streptomycin in an incubator (37° C., 5% CO2). Either 10 μM of TAT-GRpep, 10 μM TAT-control peptide or saline were added in culture plates for 45 min in advance at 8 days in vitro (8 DIV).\nCultured neurons were fixed in 4% PFA/4% sucrose, permeabilized with 0.1M PBS containing 0.1% Triton X-100 for 10 min, and blocked for 1 hour with 1% bovine serum albumin in PBS at room temperature. They were incubated with primary antibodies overnight at 4° C. and secondary antibodies for 1 hour at room temperature. The following primary antibodies were used: anti-GR (1:200; Thermo), anti-FKBP51 (1:200; Abcam) and anti-FKBP52 (1:200; Abcam). […] DAPI was used to stain cell nuclei."}, "[2]": {"tested_on": "GR phosphorylation at S211", "assay": "Western blot of GR phosphorylation at S211 in brain lysate of fear-conditioned mice", "assay_type": "in vivo, mouse", "conditions": "brain lysate of fear-conditioned mice injected with TAT or TAT-GRpep; p<0.05, n=3", "source_text": "To further investigate these findings, surface plasmon resonance (SPR) was used to estimate association and dissociation rates between GR and FKBP51. […] Thus, GR S211 phosphorylation seems to reduce GR affinity for FKBP51. Conversely, disruption of the GR-FKBP51 complex with TAT-GRpep could increase GR S211 phosphorylation, which is what was observed when comparing fear-conditioned mice treated with TAT-GRpep vs. TAT control or no treatment (FIG. 5 I-J).\nCo-immunoprecipitation and Western blot analyses were performed as previously described.^24, 25, 26 For co-immunoprecipitation, 500˜1000 μg solubilized protein was extracted from whole mouse brain and incubated with primary antibody or control IgG (2˜4 μg) for 4 hrs at 4° C., followed by the addition of 25 μl protein A/G plus agarose (Santa Cruz Biotechnology) for 12 hrs. Pellets were washed, boiled for 5 min in SDS sample buffer and subjected to SDS-PAGE. 50˜100 μg of total protein extract was used as control in each experiment. After transfer of proteins into nitrocellulose, membranes were Western blotted with the primary antibodies. The intensity of protein level was quantified by densitometry (software: ImageLab, Bio-Rad). […]"}, "GR-FKBP51 complex": {"biological_target": "T1, GR-FKBP51 complex (Mus musculus, UniProt Q64378)", "T1 construct": "from tissue; host or cells: C57Bl/6 mouse brain (acute slices; whole-brain lysate) and blood lymphocytes", "T1 sequence (Q64378 1-456)": "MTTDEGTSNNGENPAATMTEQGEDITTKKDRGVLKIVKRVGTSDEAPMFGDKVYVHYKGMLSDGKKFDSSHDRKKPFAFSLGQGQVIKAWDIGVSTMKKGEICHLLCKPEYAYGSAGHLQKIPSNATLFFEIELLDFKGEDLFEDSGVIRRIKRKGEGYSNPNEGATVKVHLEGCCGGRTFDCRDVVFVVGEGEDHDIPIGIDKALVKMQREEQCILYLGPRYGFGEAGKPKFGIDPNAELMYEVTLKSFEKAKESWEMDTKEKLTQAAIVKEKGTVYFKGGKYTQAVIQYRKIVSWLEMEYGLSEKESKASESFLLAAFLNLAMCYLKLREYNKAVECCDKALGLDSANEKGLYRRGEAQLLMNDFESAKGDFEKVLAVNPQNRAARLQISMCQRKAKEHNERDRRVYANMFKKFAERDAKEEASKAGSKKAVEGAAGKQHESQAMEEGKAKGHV", "assay": "Co-immunoprecipitation of GR-FKBP51 complex in brain and lymphocyte lysate of fear-conditioned mice injected with peptide", "assay_type": "in vivo", "conditions": "brain lysate of fear-conditioned mice injected with TAT or TAT-GRpep; p<0.05, n=3", "description": "Furthermore, testing was performed to determine whether disrupting the GR-FKBP51 complex reduced consolidation of cued fear memory. Thus, TAT or TAT-GRpep was administered two hours after the end of fear conditioning training (FIG. 4C), before five consecutive daily extinction sessions of cue exposure without shock.\nCo-immunoprecipitation and Western blot analyses were performed as previously described.^24, 25, 26 For co-immunoprecipitation, 500˜1000 μg solubilized protein was extracted from whole mouse brain and incubated with primary antibody or control IgG (2˜4 μg) for 4 hrs at 4° C., followed by the addition of 25 μl protein A/G plus agarose (Santa Cruz Biotechnology) for 12 hrs. Pellets were washed, boiled for 5 min in SDS sample buffer and subjected to SDS-PAGE. 50˜100 μg of total protein extract was used as control in each experiment. After transfer of proteins into nitrocellulose, membranes were Western blotted with the primary antibodies. The intensity of protein level was quantified by densitometry (software: ImageLab, Bio-Rad)."}, "[3]": {"biological_target": "T2, Flag-tagged GR S211A mutant (non-phosphorylated GR mutant) (human, UniProt P04150 1-777)", "T2 construct": "also called S211A-GR; S211A GR; not shown: Flag tag", "T2 sequence": "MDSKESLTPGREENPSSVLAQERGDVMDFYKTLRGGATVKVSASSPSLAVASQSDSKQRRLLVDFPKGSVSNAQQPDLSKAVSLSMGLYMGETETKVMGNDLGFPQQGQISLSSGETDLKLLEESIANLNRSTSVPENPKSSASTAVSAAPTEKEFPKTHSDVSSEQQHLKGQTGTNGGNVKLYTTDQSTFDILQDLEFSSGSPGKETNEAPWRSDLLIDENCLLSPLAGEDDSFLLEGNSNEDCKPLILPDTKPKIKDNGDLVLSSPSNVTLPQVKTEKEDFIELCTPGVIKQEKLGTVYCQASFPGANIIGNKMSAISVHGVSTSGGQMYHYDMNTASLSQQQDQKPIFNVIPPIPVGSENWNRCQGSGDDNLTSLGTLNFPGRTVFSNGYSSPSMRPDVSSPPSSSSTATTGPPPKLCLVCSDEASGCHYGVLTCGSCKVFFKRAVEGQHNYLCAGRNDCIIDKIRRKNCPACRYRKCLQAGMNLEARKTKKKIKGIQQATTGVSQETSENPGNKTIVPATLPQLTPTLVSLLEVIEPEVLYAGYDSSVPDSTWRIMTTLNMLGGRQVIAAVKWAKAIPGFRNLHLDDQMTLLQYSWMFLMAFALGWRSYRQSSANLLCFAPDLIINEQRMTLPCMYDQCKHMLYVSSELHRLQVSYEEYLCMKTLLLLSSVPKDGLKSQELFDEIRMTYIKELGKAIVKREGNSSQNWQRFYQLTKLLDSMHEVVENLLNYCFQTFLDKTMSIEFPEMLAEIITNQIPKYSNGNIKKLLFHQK", "assay": "SPR (Reichert SR7500DC, 25 C), FLAG-tagged GR captured on FLAG antibody-coated chip, GST-FKBP51_TPR injected"}, "[4]": {"biological_target": "T3, Flag-tagged GR S211E mutant (phosphomimetic GR mutant) (human, UniProt P04150 1-777)", "T3 construct": "also called S211E-GR; S211E GR; not shown: Flag tag", "T3 sequence": "T2 sequence with A211E", "assay": "SPR (Reichert SR7500DC, 25 C), FLAG-tagged GR captured on FLAG antibody-coated chip, GST-FKBP51_TPR injected"}, "[5]": {"biological_target": "T4, Flag-tagged GR, wild-type (human, UniProt P04150 1-777)", "T4 construct": "Expressed in HEK293(T) cells; also called Flag-GR; WT-GR; not shown: Flag tag", "T4 sequence": "T2 sequence with A211S", "assay": "SPR (Reichert SR7500DC, 25 C), FLAG-tagged GR captured on FLAG antibody-coated chip, GST-FKBP51_TPR injected"}}, "note": "Numbering of substitutions follows the chain as printed.", "data": [{"molecule": "TAT: control peptide: cell-membrane transduction domain of the human immunodeficiency virus-type 1 TAT protein (GRKKRRQRRRPQ; Amino Acid Sequence of the Cell-Membrane Transduction Domain of HIV-Type 1 Transactivator of Transcription (TAT) Protein) [reference compound]", "values": [{"measurement": "duration of freezing with the CS", "setting": "fear-conditioned mice; 3 nmol/g i.p. one hour before the test, after 5 days of extinction training, three-minute cue trial", "result": "64.2 ± 10.7", "unit": "s"}, {"measurement": "duration of freezing with the CS (consolidation of cued fear memory)", "setting": "fear-conditioned mice; peptide administered two hours after end of fear conditioning, tested 24 hours after last of five daily extinction sessions", "result": "71.0 ± 3.6", "unit": "s"}, {"measurement": "nuclear GR-FKBP52 colocalization", "setting": "[1]", "result": "almost negligible amount of GR-FKBP52 complex"}, {"measurement": "GR phosphorylation at S211", "setting": "[2]", "result": "not"}, {"measurement": "GR-FKBP51 complex level in brain (co-immunoprecipitation)", "setting": "GR-FKBP51 complex", "result": "not"}]}, {"molecule": "B1", "values": [{"measurement": "Kd", "setting": "[3]", "result": 0.412, "unit": "µM"}, {"measurement": "Kd", "setting": "[4]", "result": 3.9, "unit": "µM"}, {"measurement": "Kd", "setting": "[5]", "result": 3.31, "unit": "µM"}]}]}
